Columns and labels:
[1] = biological target: T1, Tyrosine-protein kinase ZAP-70 (Homo sapiens) (UniProt P43403); test: Effect on ZAP70 phosphorylation in human Jurkat cells pre-incubated for 30 mins followed by anti-CD3/CD28 stimulation measured after 10 mins relative to control; assay type: cell-based
T1 sequence (whole entry): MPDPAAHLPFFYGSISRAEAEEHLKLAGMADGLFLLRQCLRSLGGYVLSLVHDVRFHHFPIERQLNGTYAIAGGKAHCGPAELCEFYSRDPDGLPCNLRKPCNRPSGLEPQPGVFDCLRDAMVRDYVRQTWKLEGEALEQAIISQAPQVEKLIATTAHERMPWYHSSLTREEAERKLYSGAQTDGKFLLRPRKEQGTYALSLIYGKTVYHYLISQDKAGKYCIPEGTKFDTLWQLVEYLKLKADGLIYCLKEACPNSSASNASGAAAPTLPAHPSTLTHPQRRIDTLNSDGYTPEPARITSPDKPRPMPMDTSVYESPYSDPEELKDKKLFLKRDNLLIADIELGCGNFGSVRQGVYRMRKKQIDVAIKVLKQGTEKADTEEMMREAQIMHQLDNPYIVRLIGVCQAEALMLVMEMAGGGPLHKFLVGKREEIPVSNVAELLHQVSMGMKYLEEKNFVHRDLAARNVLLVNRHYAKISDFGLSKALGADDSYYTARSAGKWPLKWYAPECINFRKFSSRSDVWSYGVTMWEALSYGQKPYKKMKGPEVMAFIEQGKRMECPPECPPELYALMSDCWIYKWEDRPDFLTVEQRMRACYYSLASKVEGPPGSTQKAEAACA

[2] = Metabolic stability in human liver microsomes assessed as compound remaining at 0.5 uM measured after 10 mins in presence of NADPH by LC-MS/MS analysis; assay type: ADME, Microsome; conditions: read-out: Stability
[3] = Metabolic stability in mouse liver microsomes assessed as compound remaining at 0.5 uM measured after 10 mins in presence of NADPH by LC-MS/MS analysis; assay type: ADME, Microsome; conditions: read-out: Stability
[4] = Drug metabolism in mouse liver microsomes assessed as oxidation at […] group by soft spot analysis; assay type: ADME, Microsome
[5] = Protein binding in mouse serum assessed as unbound fraction measured up to 5 hrs by LC-MS/MS analysis relative to control; assay type: ADME, cell-free
[6] = Protein binding in human serum assessed as unbound fraction measured up to 5 hrs by LC-MS/MS analysis relative to control; assay type: ADME, cell-free
[7] = Half life in mouse liver microsomes at 0.5 uM measured up to 45 mins by LC-MS/MS analysis; assay type: ADME, Microsome
[8] = Half life in human liver microsomes at 0.5 uM measured up to 45 mins by LC-MS/MS analysis; assay type: ADME, Microsome
[9] = species: Homo sapiens; test: Immunostimulatory activity in human CD4-positive T cells assessed as increase in OKT-induced increase in CD4-positive T cells proliferation pre incubated for 15 mins followed by co-culture with CHO cells over-expressing OKT and measured after 72 hrs by MTS assay; assay type: functional, cell-based
[10] = Half life in C57BL/6 mouse at 100 mg/kg, po; assay type: ADME, organism-based; conditions: in vivo
[11] = Cmax in C57BL/6 mouse at 100 mg/kg, po; assay type: ADME, organism-based; design: dose 100 mg/kg, route oral; conditions: in vivo
[12] = Tmax in C57BL/6 mouse at 100 mg/kg, po; assay type: ADME, organism-based; conditions: in vivo
[13] = Drug concentration in C57BL/6 mouse at 100 mg/kg, po after 24 hrs; assay type: ADME, organism-based; conditions: in vivo, read-out: Ct
[14] = Effect on human CD4-positive T cell activation assessed as increase in increase in CD4-positive T cells proliferation preincubated for 15 mins followed by co-culture with CHO cells and measured after 48 hrs by AlphaLisa assay; assay type: cell-based
[15] = species: Homo sapiens; test: Immunostimulatory activity in human CD4-positive T cells assessed as increase in OKT-induced IL-2 secretion pre incubated for 15 mins followed by co-culture with CHO cells over-expressing OKT and measured after 48 hrs by AlphaLisa assay; assay type: functional, cell-based
[16] = Effect on human CD4-positive T cell activation assessed as increase in IL-2 secretion preincubated for 15 mins followed by co-culture with CHO cells and measured after 48 hrs by AlphaLisa assay
[17] = AUC in C57BL/6 mouse at 100 mg/kg, po; assay type: ADME, organism-based; conditions: in vivo
[18] = biological target: Tyrosine-protein kinase Lck (Homo sapiens, UniProt P06239); test: Inhibition of His-tagged/GST-tagged LCK (unknown origin) incubated for 1 hr by TR-FRET assay
Tyrosine-protein kinase Lck, sequence (P06239 whole entry): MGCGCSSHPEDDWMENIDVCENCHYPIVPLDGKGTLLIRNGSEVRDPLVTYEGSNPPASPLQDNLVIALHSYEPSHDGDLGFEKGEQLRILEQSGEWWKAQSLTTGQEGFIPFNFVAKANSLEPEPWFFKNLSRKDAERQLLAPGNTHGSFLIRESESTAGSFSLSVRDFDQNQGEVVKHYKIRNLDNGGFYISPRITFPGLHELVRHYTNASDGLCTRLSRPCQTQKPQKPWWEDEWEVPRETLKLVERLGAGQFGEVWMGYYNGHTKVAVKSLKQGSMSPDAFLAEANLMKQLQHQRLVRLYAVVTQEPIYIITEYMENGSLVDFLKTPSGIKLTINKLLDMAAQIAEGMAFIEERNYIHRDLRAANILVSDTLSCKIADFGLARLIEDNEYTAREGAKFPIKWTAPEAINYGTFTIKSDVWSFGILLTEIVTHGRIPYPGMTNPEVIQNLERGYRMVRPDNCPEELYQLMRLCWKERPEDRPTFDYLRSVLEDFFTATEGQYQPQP

[19] = Drug metabolism in mouse liver microsomes assessed as oxidation at indazole ring by soft spot analysis; assay type: ADME, Microsome
[20] = Plasma concentration in C57BL/6 mouse at 100 mg/kg, po; assay type: ADME, organism-based; conditions: in vivo

Emax [1] [%] | remaining at 10 min, 0.5 µM [2] [%] | remaining at 10 min, 0.5 µM [3] [%] | SMILES | also measured
220 | 80 | 2 | COc1ccc2c(C(=O)Nc3ccc(NC(=O)c4nn(C5CCN(C(=O)NC(C)(C)C)CC5)c5ccccc45)cc3C)cnn2c1 | 
370 | 85 | 9 | Cc1cc(NC(=O)c2nn(C3CCN(C(=O)CC(C)(C)C#N)CC3)c3ccccc23)ccc1NC(=O)c1cnn2ccccc12 | Drug metabolism [4]: Metabolite_Detected
240 | 71 | 21 | CC(C)(C)NC(=O)N1CCC(n2nc(C(=O)Nc3ccc(NC(=O)c4cnn5ccccc45)cc3)c3ccccc32)CC1 | 
180 | 65 | 15 | CC(C)(C)NC(=O)N1CCC(n2nc(C(=O)Nc3ccc(-c4ccc(=O)[nH]n4)c(Cl)c3)c3ccccc32)CC1 | 
 |  | 59 | COc1ccc2c(C(=O)Nc3ccc(NC(=O)c4nn(C)c5ccccc45)cc3C)cnn2c1 | 
210 | 85 | 99 | COc1ccc2c(C(=O)Nc3ccc(NC(=O)c4nn(C5CCN(C(=O)NC(C)(C)C)CC5)c5ccc(F)cc45)cc3Cl)cnn2c1 | Fu [5]: < 0.2%; Fu [6]: 0.4%; half-life at 0.5 µM [7]: 1.47 h; half-life at 0.5 µM [8]: > 2 h
280 | 72 | 1 | CCc1cc(NC(=O)c2nn(C3CCN(C(=O)NC(C)(C)C)CC3)c3ccccc23)ccc1-c1cc(C)c(=O)[nH]n1 | 
250 | 84 | 24 | CC(C)(C)NC(=O)N1CCC(n2nc(C(=O)Nc3ccc(NC(=O)c4cnn5ccccc45)c(Cl)c3)c3ccccc32)CC1 | 
270 | 61 | 59 | CCc1cc(NC(=O)c2nn(C3CCN(C(=O)NC(C)(C)C)CC3)c3ccccc23)ccc1-c1n[nH]c(=O)c(C)c1C | Fu [5]: 1%; Fu [6]: 0.5%; half-life at 0.5 µM [7]: 0.2 h; half-life at 0.5 µM [8]: 0.233 h
360 | 91 | 100 | COc1ccc2c(C(=O)Nc3ccc(NC(=O)c4nn(C5CCN(C(=O)CC(C)(C)C#N)CC5)c5ccc(F)cc45)cc3Cl)cnn2c1 | Fu [5]: 0.3%; Fu [6]: < 0.1%; Activity [9]: Dose-dependent effect; half-life [10]: 5.3 h; Cmax [11]: 19.3 µM; Tmax [12]: 7 h; concentration at 24 h [13]: 1.3 µM; Activity [14]: Non-Toxic; Activity [15]: Dose-dependent effect; half-life at 0.5 µM [7]: > 2 h; Activity [16]: Non-Toxic; half-life at 0.5 µM [8]: > 2 h; AUC [17]: 222 µM·h
190 | 72 | 10 | Cc1cc(NC(=O)c2nn(C3CCN(C(=O)NC(C)(C)C)CC3)c3ccccc23)ccc1NC(=O)c1cnn2ccccc12 | Drug metabolism [19]: Metabolite_Detected
350 | 53 | 78 | CCc1cc(NC(=O)c2nn(C3CCN(C(=O)NC(C)(C)C)CC3)c3ccccc23)ccc1-c1n[nH]c(=O)cc1C | Fu [5]: 0.9%; concentration [20]: 8.7 µM; Fu [6]: 0.4%; half-life [10]: 1.9 h; Cmax [11]: 17.3 µM; Tmax [12]: 0.3 h; concentration at 24 h [13]: 0.001 µM; half-life at 0.5 µM [7]: 0.517 h; half-life at 0.5 µM [8]: 0.167 h; AUC [17]: 51.5 µM·h
350 | 68 | 9 | Cc1cc(=O)[nH]nc1-c1ccc(NC(=O)c2nn(C3CCN(C(=O)NC(C)(C)C)CC3)c3ccccc23)cc1Cl | 

SMILES | Emax [1] [%] | remaining at 10 min, 0.5 µM [2] [%] | remaining at 10 min, 0.5 µM [3] [%] | also measured
CC(C)(C)NC(=O)N1CC(Cn2nc(C(=O)Nc3ccc(-c4ccc(=O)[nH]n4)c(Cl)c3)c3ccccc32)C1 | 73 | 2 | 33 | IC50 [18]: > 50 µM

— ChEMBL document CHEMBL4304837, “Discovery of Pyridazinone and Pyrazolo[1,5-a]pyridine Inhibitors of C-Terminal Src Kinase” (ACS Med Chem Lett, 2019)
